In patent US20050287169A1, “Methods of use of genes of pyridoxal 5'-phosphate biosynthesis in Bacillus subtilis: avirulent strains for vaccines, and methods for identification of antibacterial agents” (priority 2003, published 2005):

What was measured:
[1] = tested on: B. subtilis strain BB2253 (ΔpdxS); assay: Growth of B. subtilis pdxS (yaaD) null mutant BB2253 with supplements; assay type: cell-based, Bacillus subtilis
Description: (§1) Bacterial strains, plasmids and culture media. B. subtilis strains were grown at 37° C. in TSS minimal medium with 0.5% glucose as the carbon source and 0.2% glutamate or NH4Cl as nitrogen source, in LB broth [Miller, 1972], or in DS nutrient broth medium [Fouet, 1990]. The same media with addition of agar were used for growth of bacteria on plates. LB broth or LB agar was used for growth of Escherichia coli strains. The following antibiotic concentrations were used as appropriate: chloramphenicol, 2.5 μg/ml; neomycin, 2.5-5 μg/ml; phleomycin, 0.25 μg/ml; spectinomycin, 50 μg/ml; or a combination of erythromycin, 0.5 μg/ml, and lincomycin, 12.5 μg/ml, for B. subtilis strains; ampicillin, 50-100 μg/ml; kanamycin, 25 μg/ml; spectinomycin, 50 μg/ml; or chloramphenicol, 10 μg/ml, for E. coli strains.
Construction of yaaD and yaaE null mutants. A deletion mutation within gene yaaD was created by cutting out the 606-bp fragment starting at the AatII site of pBB1181 (FIG. 2) and religating the remaining fragment after filling in its ends (the deletion endpoint, as determined by sequencing, was determined to be beyond the HindIII site, designed for this construct). In the resulting plasmid, pBB1185 (FIG. 2), the deletion was found not to alter the reading frame ofyaaD. pBB1218, a truncated version of pBB1185 (FIG. 2), was introduced by a single-crossover, homologous recombination event into the chromosome of strain SMY, selecting transformants for neomycin resistance. […] After growth of cells of the […] Pdx^− strain in the absence of neomycin, a Neos Pdx^− derivative was isolated. In this strain it was observed that the integrated pBB1218 had been excised from the chromosome and lost. Replacement of the wild-type yaaD gene by the ΔyaaD allele in strain BB2253 and excision of pBB1218 was confirmed by sizing PCR fragments generated from the yaaD locus and by probing for the loss of vector sequences.
Poor ability to utilize PN has been observed for uncharacterized B. subtilis mutants that appeared to require B6 vitamers for growth [Pflug, 1978]. B. subtilis cells apparently lack the pdxH-like gene and the corresponding pyridoxine 5′-phosphate oxidase activity [Pflug, 1983] required for conversion of pyridoxine to PLP.

[2] = tested on: B. subtilis pdxT mutant (strains BB2256, BB2290); assay: Growth of B. subtilis pdxT (yaaE) null mutant with supplements; assay type: cell-based, Bacillus subtilis
Description: as §1
A deletion-insertion mutation within the yaaE gene was constructed by replacing a 135-bp SphI-EcoRI fragment of pBB1213 (FIG. 2) with a 1.4-kb SphI-EcoRI ble cassette determining resistance to phleomycin, excised from pJPM136 [Belitsky, 1998]. The orientation of the ble gene in the resulting plasmid pBB1217 (ΔyaaE::ble; FIG. 2) coincided with that of the yaaE gene. Plasmid pBB1217 was introduced into B. subtilis SMY, and Phlr NeoS transformants arising from double crossover homologous recombination events were selected. Replacement of the chromosomal yaaE gene by the ΔyaaE::ble allele in strain BB2256 was confirmed by comparing sizes of PCR fragments from each of the wild-type and the mutant yaaE chromosomal loci.

[3] = tested on: B. subtilis strain BB2267 (ΔpdxS ΔpdxZ::spc); assay: Viability and growth of double pdxS pdxZ null mutant BB2267 with PLP precursors; assay type: cell-based, Bacillus subtilis; settings: for Viability of double mutant pdxS pdxZ (BB2267): DS nutrient broth or glucose-ammonium TSS medium
Excerpt: Double pdxS pdxZ and pdxT pdxZ null mutants, defective both in de novo and salvage pathways of PLP synthesis, were obtained by introducing the pdxZ mutation into the chromosome of the pdxS or pdxT mutant cells by transformation.
Viability of cells of strain BB2295 carrying both pdxS and pdxZ mutations was also obtained in the absence of exogenous pyridoxal in the presence of xylose, by conditionally restoring the de novo pathway of PLP synthesis with a xylose-inducible form of the pdxS gene at an ectopic location, i.e., located elsewhere on the chromosome. These and similarly constructed conditional lethal strains can be used for vaccine development, to overcome possible lethality to the bacteria during culture of cells carrying double pdxS and pdxZ or double pdxT and pdxZ mutations.

[4] = tested on: L. monocytogenes strain BL1 (ΔpdxST::spc); assay: Growth of Listeria monocytogenes ΔpdxST::spc mutant BL1 with B6 vitamers; assay type: cell-based
Description: The resulting plasmid, pBB1212, was introduced into E. coli strain DW1030 containing conjugative plasmid pRK231.7, a broad host range plasmid of the IncP incompatibility group. pBB1212 was transferred from strain DW1030 (pBB1212) into L. monocytogenes cells by conjugation [Trieu-Cuot, 1987] at the temperature (30°) permissive for replication of pBB1212. The ΔpdxST::spc mutants, formed due to allelic exchange resulting from pBB1212 plasmid integration into the chromosome at the non-permissive temperature (41°) and excision at the permissive temperature, were obtained by screening colonies that lost the plasmid marker (chloramphenicol-resistance) and had retained resistance to spectinomycin. Replacement of the chromosomal pdxST locus by the ΔpdxST::spc allele in strain BL1 was confirmed by comparing the sizes of PCR fragments obtained by use of the wild-type and mutant pdxST chromosomal loci as templates.
These traits of the L. monocytogenes mutant are similar to those observed herein with the corresponding B. subtilis mutant.

[5] = tested on: pdxS-lacZ fusion; assay: Expression of pdxS-lacZ fusion (β-galactosidase activity); assay type: cell-based, Bacillus subtilis; settings: for β-Galactosidase activity: NH4Cl 10 mM, PL 100 μM, glucose-minimal medium
Excerpt: Construction of transcriptional pdxS-lacZ (yaaD-lacZ) and pdxT-lacZ (yaaE-lacZ) fusions. The 1.35-kb BamHI-EcoRI fragment containing the entire intragenic region between dacA and pdxS, the entire pdxS gene, and the 5′-end of the pdxT gene (FIG. 2), was cut out from the PCR product generated using primers oBB120 and oBB121 and was cloned between the corresponding sites of pHK23 to construct pBB1254 (pdxST-lacZ; FIG. 2). Plasmid pHK23 containing an erythromycin resistance gene was derived from pLG103 [Belitsky et al., 2002, the entire contents of which are hereby incorporated by reference herein]. To construct plasmid pBB1259 with apdxS-lacZ fusion (FIG. 2), a 0.50-kb HindIII-EcoRI fragment containing the 3′-end of the pdxS gene and the 5′-end of thepdxT gene, was cut out of pBB1254, and the plasmid was blunt-ended and religated. To construct plasmid pBB1262 with a pdxT-lacZ fusion (FIG. 2), a 0.43-kb BamHI-BseRI fragment, containing the pdxS promoter and the 5′-part of the pdxS gene, was cut out of pBB1254, and the plasmid was blunt-ended and religated. Strains BB2277, 2279, and 2285 carrying thepdx-lacZ transcriptional fusions integrated at the amyE locus were isolated after transforming strain SMY with pBB1254, 1259, and 1262, respectively, selecting for resistance to erythromycin and screening for loss both of α-amylase production (Amy) and vector sequences as indications of a double crossover, homologous recombination event. The Amy phenotype was assayed using colonies grown overnight on Tryptose Blood Agar Base (Difco)-0.2% starch plates [Fouet, 1990].
Activity of β-galactosidase was determined as described previously [Belitsky, 1995]. Specific activities are expressed in Miller units (1000×OD420/min·ml·OD600) [Miller, 1972].
ApdxS-lacZ transcriptional fusion (plasmid pBB1259; FIG. 2) was constructed as described in Materials and Methods herein, and was integrated at the ectopic amyE locus of the B. subtilis chromosome (strain BB2279).
No effect of addition of excess pyridoxal (up to 1 mM) was observed on expression or on growth rate. Further, a moderate activation of expression (about 3-4-fold) was observed as a result of B6 limitation, for example, by growth of apdxT mutant in LB broth. This effect was not observed or was much less pronounced for the pdxT mutant using LB broth supplemented with excess PL or NH4Cl (FIG. 6), or in a wild type strain. Further, a 2-3-fold decrease in β-galactosidase activity was observed inpdxT mutant cells grown in TSS-glucose mediume with limiting concentrations of ammonium salts, and this decrease in pdxS-lacZ expression was prevented by the presence of PL (Table 5).

[6] = tested on: B. subtilis strain BB2279 (wild-type); assay: Growth rate of wild-type B. subtilis strain BB2279 carrying pdxS-lacZ; assay type: cell-based, Bacillus subtilis
Description: as §1
No effect of addition of excess pyridoxal (up to 1 mM) was observed on expression or on growth rate. Further, a moderate activation of expression (about 3-4-fold) was observed as a result of B6 limitation, for example, by growth of apdxT mutant in LB broth. This effect was not observed or was much less pronounced for the pdxT mutant using LB broth supplemented with excess PL or NH4Cl (FIG. 6), or in a wild type strain. […]

[7] = tested on: Bacillus circulans pdxT mutant; settings: addition of pyridoxine; cited from earlier work
[8] = tested on: G. stearothermophilus PdxT-His6 protein
[9] = target: T1, wild-type B. subtilis PdxS protein (Bacillus subtilis, UniProt P37527 2-294); assay: co-purification on a Ni2+-affinity column from E. coli co-expressing both proteins (0.5 M NaCl, 0.4 M imidazole), SDS-PAGE
T1 construct: Co-expressed with PdxT-His6 in E. coli; also called YaaD; unmodified PdxS
T1 sequence (looked up): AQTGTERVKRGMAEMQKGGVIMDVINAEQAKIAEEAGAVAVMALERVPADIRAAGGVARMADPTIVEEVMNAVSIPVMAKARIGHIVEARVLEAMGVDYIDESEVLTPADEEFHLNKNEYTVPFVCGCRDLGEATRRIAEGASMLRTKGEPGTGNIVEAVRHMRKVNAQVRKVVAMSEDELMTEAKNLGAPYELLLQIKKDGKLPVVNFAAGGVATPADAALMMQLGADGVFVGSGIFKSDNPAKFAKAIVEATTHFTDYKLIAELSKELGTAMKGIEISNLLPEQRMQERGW
Description: pBAD derivatives were introduced into E. coli LMG194 (ara⁻) [Guzman, 1995] cells by transformation. The PdxS and/or PdxT proteins were induced in L-broth cultures (A₆₀₀=0.25−0.4) by addition of 0.2% L-arabinose and incubation for four hours. Cells were pelleted, were washed in 50 mM tris-Cl (pH 8.0)-5% glycerol and were disrupted by sonication in modified Novagen binding buffer (20 mM tris-Cl (pH 7.9)-500 mM NaCl-5 mM imidazole-5% glycerol) plus 1 mM phenylmethylsulfonyl fluoride and 0.1% Nonidet P-40. The sonicate was clarified by low speed centrifugation, and the supernatant was purified using a 2 ml Ni²⁺-column (Novagen) as described by the manufacturer. Buffers containing increasing concentrations of imidazole, from 30 mM to 1 M, were initially used for elution, and 485 mM and 385 mM imidazole were found suitable for elution of PdxS and PdxT proteins, respectively.
E. coli strains overproducing each of the wild-type version of the B. subtilis PdxS protein and the His₆-tagged version of PdxT were constructed, and were used for purification of the PdxT-His₆ protein by Ni²⁺-affinity chromatography.

[10] = isoleucine 500 μg/ml, with or without pyridoxine
[11] = strain BB2279, up to 1 mM pyridoxal

Cc1ncc(COP(=O)(O)O)c(C=O)c1O [PLP, Pyridoxal 5′-phosphate]
Growth of strain BB2253 in the presence of PLP [1]: Poor growth

Cc1ncc(CO)c(CN)c1O [Pyridoxamine]
Effectiveness for growth of the mutant compared with pyridoxal ([1]; strain BB2253): several-fold less effective

CC[C@H](C)[C@H](N)C(=O)O [isoleucine]
Effect on growth of the pdxS mutant [1, 10]: No effect
Effect on growth of the pdxT mutant [2, 10]: No effect

Cc1ncc(CO)c(C=O)c1O [pyridoxal]
Growth of B. subtilis ΔpdxS ([1]; FIG. 3A, 0.01 μM pyridoxal): no growth observed
Minimal concentration of pyridoxal supporting growth of B. subtilis ΔpdxS ([1]; FIG. 3A, growth rate a function of PL concentration up to 10 μM): 0.03 µM
Growth defects of strain BB2253 in rich media on addition of pyridoxal ([1]; LB-broth, brain heart infusion medium or DS medium): relieved
Restoration of growth of strain BB2253 ([1]; minimal media, 1 μM pyridoxal): fully restored
Growth rate ([2]; BB2290 pdxT, NH4Cl 10 mM, PL 100 μM, glucose-minimal medium): 60 min
Growth rate of strain BB2256 in the presence of PL ([2]; minimal and rich media): restored to that of the wild type cell
Growth and viability of double mutant pdxS pdxZ ([3]; 1 mM pyridoxal): Growth and viability
Pyridoxal concentration needed by the double mutant relative to that required for full growth of the pdxS mutant ([3]; 1 mM versus 1 μM): 1000 fold
Viability of double mutant pdxS pdxZ (BB2267) ([3]; 1 μM pyridoxal): non-viable
Restoration of growth of strain BL1 ([4]; 1 μM pyridoxal): fully restored
β-Galactosidase activity ([5]; BB2279 wild-type): 190.4 Miller units
β-Galactosidase activity ([5]; BB2290 pdxT): 142.4 Miller units
Effect of PL on the 2-3-fold decrease in pdxS-lacZ expression in pdxT mutant cells ([5]; TSS-glucose medium, limiting ammonium salts): prevented
Effect of excess pyridoxal on pdxS-lacZ expression [5, 11]: No effect
Growth rate ([6]; BB2279 wild-type, NH4Cl 10 mM, PL 100 μM, glucose-minimal medium): 60 min
Effect of excess pyridoxal on growth rate [6, 11]: No effect

Cc1ncc(CO)c(CO)c1O [pyridoxine]
Restoration of growth of strain BB2253 ([1]; 200 μM pyridoxine): only partially restored
Viability of double mutant pdxS pdxZ (BB2267) ([3]; 200 μM pyridoxine): non-viable
Restoration of growth of strain BL1 ([4]; 100 μM pyridoxine): not at all
Remediation of growth defect of B. circulans pdxT mutant [7]: not remediated

G. stearothermophilus PdxS containing a His6-tag at its C-terminus
glutaminase activity [8]: It was found that the G. stearothermophilus PdxST complex has glutaminase activity

B1: His6-tagged version of B. subtilis PdxT (enzyme, Bacillus subtilis)
chain: MLTIGVLGLQGAVREHIHAIEACGAAGLVVKRPEQLNEVDGLILPGGESTTMRRLIDTYQFMEPLREFAAQGKPMFGTCAGLIILAKEIAGSDNPHLGLLNVVVERNSFGRQVDSFEADLTIKGLDEPFTGVFIRAPHILEAGENVEVLSEHNGRIVAAKQGQFLGCSFHPELTEDHRVTQLFVEMVEEYKQKALVHHHHHH
notes: Overproduced in E. coli from pBB1252 (with PdxS) or pBB1256 (alone) and purified on a Ni2+ column; also called PdxT-His6; PdxT-H6
binding result [9]: binds
